Laboratory results published in PubChem BioAssay (NCI).
Values joined by “and” are separate entries in the source; they are usually repeats but may differ in a detail not shown here. Equal values may be shown once.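 A five-concentration, 48-hour dose response in 96-well plates underlies each endpoint, interpolated linearly between surrounding concentrations. Here, GI50 denotes the concentration required for 50% inhibition of growth. TGI denotes the concentration required for complete inhibition of growth.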

Columns and labels:
Assay in all cases: NCI-60 cell line screen, 48 h
786-0 renal = tested on: 786-0 renal
ACHN renal = tested on: ACHN renal
HCC-2998 colon = tested on: HCC-2998 colon
KM12 colon = tested on: KM12 colon
OVCAR-4 ovarian = tested on: OVCAR-4 ovarian
OVCAR-5 ovarian = tested on: OVCAR-5 ovarian
SW-620 colon = tested on: SW-620 colon
T-47D breast = tested on: T-47D breast
UACC-62 melanoma = tested on: UACC-62 melanoma
UO-31 renal = tested on: UO-31 renal

Row | Structure (SMILES) | GI50 (786-0 renal) | TGI (786-0 renal) | GI50 (ACHN renal) | TGI (ACHN renal) | GI50 (HCC-2998 colon) | TGI (HCC-2998 colon) | GI50 (KM12 colon) | TGI (KM12 colon) | GI50 (OVCAR-4 ovarian) | TGI (OVCAR-4 ovarian) | GI50 (OVCAR-5 ovarian) | TGI (OVCAR-5 ovarian) | GI50 (SW-620 colon) | TGI (SW-620 colon) | GI50 (T-47D breast) | TGI (T-47D breast) | GI50 (UACC-62 melanoma) | TGI (UACC-62 melanoma) | GI50 (UO-31 renal) | TGI (UO-31 renal)
1 | Nc1ncc(-c2ccc(C(F)(F)F)cc2)c(NC2CCCCCC2)n1 | 32.2 µM | > 100 µM | 33.8 µM | > 100 µM | 48.5 µM | > 100 µM | 37.2 µM | > 100 µM | 16.7 µM | > 100 µM | 45.6 µM | > 100 µM | 39.3 µM | > 100 µM | 18.3 µM | > 100 µM | 20.4 µM | > 100 µM | 13 µM | > 100 µM
2 | O=[N+]([O-])c1cc(Br)cc2c1[nH]c1ccc(Br)cc12 | 5.47 µM | 27.4 µM | 3.31 µM | 19.9 µM | 9.86 µM | > 100 µM | 13.3 µM | > 100 µM | 2.48 µM | 8.47 µM | 15.5 µM | > 100 µM | 7.97 µM | > 100 µM | 6.76 µM | 77.9 µM | 22.1 µM | > 100 µM | 2.08 µM | 10.4 µM
3 | Cc1nn2c(/C=C3/C(=O)Nc4ccc(Cl)cc43)c(-c3ccccc3)nc2s1 | 2.37 µM | 5.8 µM | 2.96 µM | 14.4 µM | 9.59 µM | 37 µM | 2.11 µM | 5.88 µM | 1.66 µM | 3.64 µM | 8.38 µM | 25.9 µM | 4.51 µM | 19.7 µM | 1.71 µM | 11.5 µM | 3.8 µM | 18.5 µM | 1.07 µM | 13.2 µM
4 | CN1CCN(Cc2ccc(NC(=O)c3[nH]ncc3Nc3ncnc4c3CCC4)cc2)CC1 | 2.24 µM | 11 µM | 1.32 µM | 9.09 µM | 3.02 µM | 11.6 µM | 0.767 µM | 11.1 µM | 1.49 µM | 6.67 µM | 3.59 µM | 16.2 µM | 0.836 µM | 10.3 µM | 3.72 µM | 22.7 µM | 3.24 µM | 13.5 µM | 1.5 µM | 7.61 µM
5 | COC[C@H]1OC(=O)c2coc3c2[C@@]1(C)C1=C(C3=O)[C@@H]2CCC(=O)[C@@]2(C)C[C@H]1OC(C)=O |  | > 100 µM |  | > 100 µM |  | 20 µM |  | > 100 µM | 18.6 µM | > 100 µM |  | > 100 µM |  | > 100 µM |  | > 46.2 µM |  | 17.5 µM |  | > 72.8 µM
6 | CC(=O)Oc1cccc2c1C(=O)C(Br)(Br)CCC2 |  | 11.4 µM |  | 12.8 µM |  | 31.1 µM |  | 23.2 µM |  | 3.67 µM |  | 21.9 µM |  | 9.13 µM |  | 4.61 µM |  | 20.9 µM |  | 23.2 µM
7 | Cn1c2ccccc2c2nnc(N/N=C/c3ccccn3)nc21 | 0.256 µM | 0.758 µM | 0.35 µM | > 21.4 µM | 0.529 µM | > 63.8 µM | 0.535 µM | > 38.3 µM | 0.419 µM | > 58.9 µM | 1.27 µM | > 72.4 µM | 0.509 µM | > 82.1 µM | 0.392 µM | 10.8 µM | 0.3 µM | 1.03 µM | 0.361 µM | 5.3 µM
8 | CCOC(=O)C(Cc1c[nH]c2cc([N+](=O)[O-])ccc12)(NC(C)=O)C(=O)OCC | 175 µM | > 754 µM | 178 µM | > 1000 µM | > 1000 µM | > 1000 µM | > 1000 µM | > 1000 µM | > 1000 µM | > 1000 µM | > 833 µM | > 1000 µM | > 1000 µM | > 1000 µM | 40.7 µM and 105 µM | > 1000 µM |  | > 1000 µM | 43.4 µM and 188 µM | > 1000 µM
9 | CC1(C)N=C(N)N=C(N)N1c1cccc(CCCCc2ccc(S(=O)(=O)F)cc2Cl)c1 | 3.28 µM | 24.5 µM | 8.66 µM | > 100 µM | 5.47 µM | 38.8 µM | 1.72 µM | 15.7 µM | 13.9 µM | > 100 µM | 6.29 µM | > 100 µM | 0.701 µM | > 39.8 µM | 14 µM | 34.5 µM | 0.494 µM | 17.1 µM | 14.6 µM | > 100 µM
10 | Cn1c2ccc([N+](=O)[O-])cc2c(=O)c2c(O)cc(O)cc21 |  | 47 µM |  | > 100 µM |  | > 100 µM |  | > 100 µM |  | > 100 µM |  | > 100 µM |  | > 100 µM |  | > 100 µM |  | > 100 µM |  | > 100 µM
11 | CN(C)CCNC(=O)c1cc([N+](=O)[O-])ccn1 |  | > 100 µM |  | > 100 µM |  | > 100 µM |  | > 100 µM |  | 43 µM |  | > 100 µM |  | > 100 µM |  | 78.1 µM |  | 42.3 µM |  | > 100 µM
12 | CNC1NC(=O)c2ccccc2N1Cc1ccc(F)cc1 (centres undefined) |  | > 100 µM |  | > 100 µM |  | > 100 µM |  | > 100 µM |  | > 100 µM |  | > 100 µM |  | > 100 µM |  | > 100 µM |  | > 100 µM |  | 26 µM
13 | N#CSCC1CC(O)(c2ccccc2)C(c2ccccc2)C(c2ccc(F)cc2)O1 (centres undefined) | 3.05 µM | 9.08 µM | 3.42 µM | 11.4 µM | 10.7 µM | 23 µM | 2.32 µM | 5.85 µM | 2.84 µM | 10.9 µM | 7.24 µM | 19.4 µM | 3.02 µM | 10 µM | 3.17 µM | > 37.3 µM | 1.9 µM | 5.58 µM | 2.62 µM | 11.9 µM
14 | c1ccc2[nH]c(-c3ccc(OCCCCCOc4ccc(-c5nc6ccccc6[nH]5)cc4)cc3)nc2c1 | 2.28 µM | 5.92 µM | 3.29 µM | 11.9 µM | 2.31 µM | 7.59 µM | 1.54 µM | 4.17 µM | 1.76 µM | 3.64 µM | 2.69 µM | 6.75 µM | 1.02 µM | 3.69 µM | 0.822 µM | 2.13 µM | 4.95 µM | 10.8 µM | 1.25 µM | 3.67 µM
15 | COc1ccc(C(=O)c2cc(OC)c(OC)c(OC)c2)cc1O | 0.914 µM | > 100 µM | 0.0433 µM | > 100 µM | 0.0832 µM | > 100 µM | < 0.0155 µM | > 100 µM | 0.61 µM | > 100 µM | 1.6 µM | > 100 µM | < 0.01 µM | > 100 µM | 26 µM | > 100 µM | 1.1 µM | > 100 µM | 0.296 µM | > 100 µM
16 | O=C(N/N=C/c1ccc(O)cc1O)c1ccc(Nc2ccnc(C(F)(F)F)c2)cc1 | 31.2 µM | > 100 µM | 31.8 µM | > 100 µM | > 75.2 µM | > 100 µM | > 100 µM | > 100 µM |  | > 100 µM | > 100 µM | > 100 µM | > 100 µM | > 100 µM | 1.29 µM | > 100 µM | 0.0485 µM | > 100 µM | > 24.3 µM | > 100 µM
17 | CCOc1cc2ncc(C#N)c(Nc3ccc(F)c(Cl)c3)c2cc1NC(=O)/C=C/CN(C)C | 0.339 µM | 2 µM | 0.0232 µM | 1.8 µM | 1.13 µM | > 10 µM | 1.22 µM | 3.01 µM | 0.235 µM | 4.1 µM | 0.344 µM | > 5.93 µM | 0.485 µM | 3.23 µM | 0.108 µM | > 3.37 µM | 0.449 µM | > 5.09 µM | 0.046 µM | > 3.46 µM
18 | Cc1ccc(NS(=O)(=O)c2cc(C)ccc2C)cc1 | 10.6 µM | 31.4 µM | 12.7 µM | 90 µM | 7 µM | 28 µM | 1.73 µM | 16.5 µM | 20.9 µM | > 100 µM | 15.4 µM | 72.4 µM | 2.58 µM | > 100 µM | 6.09 µM | > 100 µM | 3.08 µM | 19.9 µM | 12.1 µM | 72 µM
19 | O=C(Nc1ccc2oc(=O)c(C(=O)O)cc2c1)Oc1ccccc1 |  | > 100 µM |  | > 100 µM |  | > 100 µM |  | > 100 µM |  | > 100 µM |  | > 100 µM |  | > 100 µM |  | > 100 µM |  | > 100 µM |  | > 100 µM
20 | COc1cccc(/C=C/C(=O)c2cc3c(N)c(C(=O)Nc4cccc(Cl)c4C)sc3nc2C)c1 | 0.823 µM | 1.83 µM | 0.811 µM | 1.95 µM | 0.971 µM | 1.83 µM | 1.02 µM | 2.8 µM | 1.64 µM | > 14.1 µM | 1.22 µM | 3.44 µM | 0.472 µM | 3.85 µM | 1.52 µM | 7.82 µM | 0.844 µM | 3.5 µM | 0.809 µM | 1.97 µM
21 | O=C(c1cc(-c2cc3c(cc2C(=O)N2Cc4ccccc4C[C@H]2CN2CCOCC2)OCO3)n2c1CCCC2)N(c1ccccc1)c1ccc(O)cc1 | 45.9 µM | > 100 µM | 9.36 µM | > 100 µM | 4.93 µM | 61.3 µM | 12.9 µM | > 100 µM | 8.35 µM | > 100 µM | 5.87 µM | > 100 µM | 17.3 µM | > 100 µM | 4.95 µM | > 100 µM | 8.62 µM | > 100 µM | 4.28 µM | > 100 µM
22 | CN(C)CCCn1c2c3ccccc3ccc2c2oc(=O)c3ccccc3c21 |  | 5.54 µM |  | 15.7 µM |  | 2.46 µM |  | 10.3 µM |  | > 95 µM |  | 55.5 µM |  | 7.95 µM |  | > 100 µM |  | 20.3 µM |  | 15.1 µM
